Where two headings read alike, the source gives them in different places. Bridge positions count the residues as written; N and C are the ends. Peptide text beside a SMILES is read from it.
Key:
[1] = test system: Staphylococcus aureus Newman strain; conditions: 5 mg/kg body weight, injected 30 minutes after infection; versus aseptic water control; one week
Procedure: 1) Preparation of Staphylococcus aureus Newman Solution
Newman monoclonal strain with hemolytic circles is selected, 3 mL BHI medium is inoculated with the strain, and the strain is shook overlight at a speed of 220 rpm and a temperature of 37° C.
1 mL overnight strain is centrifuged at a speed of 5000 rpm for 2 min, and the supernatant is removed.
20 mL aseptic PBS is added for resuspension at a speed of 5000 rpm for 5 min, and the supernatant is removed.
5 mL aseptic PBS resuspended bacteria is diluted to OD600=0.
2) Establishment of Model of Bacteremia and Determination of Polypeptide Activity in BALB/c Mice
BALB/c mice (female, 8 weeks) are subjected to intraperitoneal injection of anesthetic (1% pentobarbital) (200 μL for each mouse).
Newman solution (OD600=0.2, 100 μL for each mouse) is injected into retrobulbar venous plexus.
After 30 minutes of infection, 6 mice are injected with polypeptide at enterocoelia (0.5 mg/mL, 200 μL for each mouse) and 7 mice in control are injected with sterile water (200 μL for each mouse).
The times of the mouse in one week are recorded and used for drawing survival curves.

[2] = test system: production of the toxins of Staphylococcus aureus 04018 strain (MDBK cells readout); type: cell-based; conditions: for Cell survival (%) / inhibitory effect on the production of the toxins of Staphylococcus aureus (in words): MDBK cells; for MDBK cell OD (M ± SD): OD 595 nm, MTT; for inhibitory effect on the production of the toxins of Staphylococcus aureus (in words): peptide in normal saline (MRK as suspension)
Procedure: For the determination method for inhibitory level on the toxins of Staphylococcus aureus, please refer to literatures. (Yang G, et al. A novel peptide screened by phage display can mimic TRAP antigen epitope against Staphylococcus aureus infections. J Biol. Chem. 2005, 280: 27431-27435), details are as follows:
1) Staphylococcus aureus strain 04018 frozen in refrigerator is scribbed to a blood plate or BHI plate; cultured in an incubator for 16 hours until monoclonal colony is observed in the plate, and placed in a 4° C. refrigerator for standby use.
2) After 8 hours, the monoclonal colony in the plate is randomly selected, 25 mL test tubes of the BHI medium is inoculated with the monoclonal colony; and then the two test tubes are shook in a shaking table at a temperature of 37° C. at a speed of 200 rpm, the bacteria are collected after 16 hours, the bacteria solution in the two test tubes are mixed evenly for standby use.
3) The chemosynthetic peptide MRK and MRG and the positive control (the toxins of Staphylococcus aureus inhibitor protein TP) are dissolved in normal saline, diluted to different concentrations, and added to bacteria BHI medium. The final concentrations of small peptides are 0, 1.5, 5, 15, 50, 150 and 500 μg/mL respectively. The solvent control is the same amount of normal saline; the negative control is the BHI medium of Staphylococcus aureus; and a normal cell control is also provided.
4) The chemosynthetic peptides of different concentrations are co-incubated with Staphylococcus aureus 04018 and cultured for 6 hours, and then bacteria are collected. 700 μL bacterial suspensions are added to EP tubes, centrifuged at 8000 rpm for 5 min, supernatants are obtained, boiled at a temperature of 100° C. for 7 min, and centrifuged at a speed of 14000 rpm for 10 min. 10 μL supernatants are taken, added into a 96-microwell cell culture plate inoculated with 1×10<5>/mL MDBK cells. After continuous culture for 18-20 hours, 5 μL MTT solution (5 mg/mL) is added to each microwell, 100 μL 10% SDS+0.01M HCl solution is added to each microwell after 3 hours. After culture in the incubator at a temperature of 37° C. for 20 hours, detection at 595 nm and reading are carried out by an enzyme-linked immunometricmeter.

Compound: CH3(CH2)10CO-Gly-Cyclo(Cys-Gln-His-D-Trp-Trp-His-Trp-Tyr-Cys)-Arg-Arg-Arg-NH2 [MRG]
- death / survival rate in bacteremia (in words) [1]: survival rate is greatly improved
- inhibitory effect on toxin production compared with TP protein (positive control) ([2]; 5 μg/mL small peptide): greater than that of TP protein
- Cell survival (%) ([2]; 0.005 mg/mL peptide): 60%
- MDBK cell OD (M ± SD) ([2]; 0.005 mg/mL peptide): 0.296 ± 0.001
- Cell survival (%) ([2]; 0.05 mg/mL peptide): 92%
- MDBK cell OD (M ± SD) ([2]; 0.05 mg/mL peptide): 0.454 ± 0.015
- Cell survival (%) ([2]; 0.15 mg/mL peptide): 96%
- MDBK cell OD (M ± SD) ([2]; 0.15 mg/mL peptide): 0.473 ± 0.004
- inhibitory effect on the production of the toxins of Staphylococcus aureus (in words) [2]: obvious protective effect on the proliferation inhibition of MDBK cells

Compound: NC(=O)CC[C@@H]1NC(=O)[C@@H](N)CSSC[C@@H](C(=O)O)NC(=O)[C@H](Cc2ccc(O)cc2)NC(=O)[C@H](Cc2c[nH]c3ccccc23)NC(=O)[C@H](Cc2c[nH]cn2)NC(=O)[C@H](Cc2c[nH]c3ccccc23)NC(=O)[C@H](Cc2c[nH]c3ccccc23)NC(=O)[C@H](Cc2c[nH]cn2)NC1=O [MRK, CQHWWHWYC] (H-CQHWWHWYC-OH; disulfide 1-9)
- death / survival rate in bacteremia (in words) [1]: good inhibitory effect on Staphylococcus aureus infection in vivo
- solubility: < 100 µg/mL
- Cell survival (%) ([2]; 0.005 mg/mL peptide): 25%
- MDBK cell OD (M ± SD) ([2]; 0.005 mg/mL peptide): 0.123 ± 0.011
- Cell survival (%) ([2]; 0.05 mg/mL peptide): 20%
- MDBK cell OD (M ± SD) ([2]; 0.05 mg/mL peptide): 0.098 ± 0.014
- Cell survival (%) ([2]; 0.15 mg/mL peptide): 35%
- MDBK cell OD (M ± SD) ([2]; 0.15 mg/mL peptide): 0.171 ± 0.001
- inhibitory effect on the production of the toxins of Staphylococcus aureus (in words) [2]: could not inhibit the production of the toxins

From patent US10905735B2 (priority 2016, dated 2021)
